Reference: ChEMBL document CHEMBL3885861, “Open TG-GATES”

Species: Rattus norvegicus
Assay: Open TG-GATES - Regimen: Daily Repeat
Assay type: toxicity, organism-based, Sprague-Dawley
Design: regimen Daily Repeat, gender Male, age 6 weeks
Settings: in vivo, po, route gavage; for Bas / Eos / Fbg / MCHC / Neu / Plat / RBC / Ret / WBC / Lym / MCH / MCV / Mono: tissue Blood; for KIDNEY_L / KIDNEY_R / KIDNEY_TOTAL: tissue Kidney; for LIVER: tissue Liver
[1] = 0 mg/kg, 72 h, dose level Control, time 3 day
[2] = 0 mg/kg, 72 h, tissue Plasma, dose level Control, time 3 day
[3] = 0 mg/kg, […], dose level Control, time 14 day
[4] = 0 mg/kg, […], dose level Control, time 28 day
[5] = 0 mg/kg, […], tissue Plasma, dose level Control, time 14 day
[6] = 0 mg/kg, […], tissue Plasma, dose level Control, time 28 day
[7] = 1 mg/kg, 72 h, dose level Low, time 3 day
[8] = 1 mg/kg, 72 h, tissue Plasma, dose level Low, time 3 day
[9] = 1 mg/kg, […], dose level Low, time 14 day
[10] = 1 mg/kg, […], dose level Low, time 28 day
[11] = 1 mg/kg, […], tissue Plasma, dose level Low, time 14 day
[12] = 1 mg/kg, […], tissue Plasma, dose level Low, time 28 day

What does the source list for `O=C(O)Cc1ccccc1Nc1c(Cl)cccc1Cl` [DICLOFENAC]?
TERMINAL_BW [1]: 237.4 g; Bas [1]: 0%; Eos [1]: 1%; Fbg [1]: 222.6 mg/dL; MCHC [1]: 34.5%; Neu [1]: 21%; Plat [1]: 120.1 x10_4/uL; RBC [1]: 626.6 x10_4/ul; Ret [1]: 4.9%; WBC [1]: 105.4 x10_2/uL; KIDNEY_L [1]: 1 g; KIDNEY_R [1]: 1 g; KIDNEY_TOTAL [1]: 2 g; ALP [2]: 974.8 IU/L; AST [2]: 65 IU/L; CRE [2]: 0.4 mg/dL; DBIL [2]: 0.1 mg/dL; GLC [2]: 193 mg/dL; IP [2]: 7.8 mg/dL; LDH [2]: 163.8 IU/L; PL [2]: 160.6 mg/dL; TBIL [2]: 0.2 mg/dL; TC [2]: 74 mg/dL; TG [2]: 141 mg/dL; TP [2]: 5.6 g/dL; gamma-GTP [2]: 1.2 IU/L; TERMINAL_BW [3]: 317.2 g; TERMINAL_BW [4]: 396.3 g; Bas [3]: 0%; Eos [3]: 0.8%; Fbg [3]: 221.6 mg/dL; Lym [3]: 80.8%; MCH [3]: 21.5 pg; MCHC [3]: 35.9%; MCV [3]: 59.9 fL; Mono [3]: 2%; Plat [3]: 106.7 x10_4/uL; Ret [3]: 4%; WBC [3]: 92.1 x10_2/uL; Bas [4]: 0%; Fbg [4]: 219.8 mg/dL; Lym [4]: 84.2%; MCH [4]: 20.1 pg; MCHC [4]: 36.1%; MCV [4]: 55.9 fL; Neu [4]: 11.4%; Plat [4]: 102.6 x10_4/uL; RBC [4]: 801.6 x10_4/ul; Ret [4]: 2.3%; WBC [4]: 127.9 x10_2/uL; KIDNEY_L [3]: 1.3 g; KIDNEY_R [3]: 1.3 g; KIDNEY_TOTAL [3]: 2.6 g; KIDNEY_L [4]: 1.4 g; KIDNEY_R [4]: 1.4 g; KIDNEY_TOTAL [4]: 2.8 g; LIVER [4]: 15.7 g; ALP [5]: 720.8 IU/L; ALT [5]: 31.2 IU/L; CRE [5]: 0.4 mg/dL; DBIL [5]: 0.1 mg/dL; GLC [5]: 220.2 mg/dL; IP [5]: 7.2 mg/dL; K [5]: 3.7 meq/L; LDH [5]: 170 IU/L; Na [5]: 140.2 meq/L; PL [5]: 143.8 mg/dL; RALB [5]: 3.4 g/dL; TBIL [5]: 0.2 mg/dL; TC [5]: 64.2 mg/dL; TP [5]: 6 g/dL; gamma-GTP [5]: 1 IU/L; ALP [6]: 600.6 IU/L; AST [6]: 57 IU/L; CRE [6]: 0.5 mg/dL; Ca [6]: 10.3 mg/dL; Cl [6]: 101.8 meq/L; DBIL [6]: 0.1 mg/dL; GLC [6]: 240.8 mg/dL; IP [6]: 6.5 mg/dL; K [6]: 3.5 meq/L; LDH [6]: 146.4 IU/L; Na [6]: 140.4 meq/L; PL [6]: 151.4 mg/dL; RALB [6]: 3.6 g/dL; TBIL [6]: 0.2 mg/dL; TC [6]: 68.8 mg/dL; TG [6]: 145.6 mg/dL; TP [6]: 6.3 g/dL; gamma-GTP [6]: 0.8 IU/L; TERMINAL_BW [7]: 235.7 g; Bas [7]: 0%; Eos [7]: 1%; Fbg [7]: 217.6 mg/dL; Mono [7]: 3.4%; Plat [7]: 125.8 x10_4/uL; RBC [7]: 633.8 x10_4/ul; Ret [7]: 5%; WBC [7]: 89.1 x10_2/uL; KIDNEY_L [7]: 1 g; KIDNEY_R [7]: 1 g; KIDNEY_TOTAL [7]: 2.1 g; LIVER [7]: 11 g; ALP [8]: 1075.6 IU/L; AST [8]: 66 IU/L; CRE [8]: 0.4 mg/dL; DBIL [8]: 0.1 mg/dL; GLC [8]: 190 mg/dL; LDH [8]: 173.4 IU/L; PL [8]: 164.2 mg/dL; TBIL [8]: 0.2 mg/dL; TC [8]: 75.8 mg/dL; TP [8]: 5.7 g/dL; gamma-GTP [8]: 1 IU/L; TERMINAL_BW [9]: 319.9 g; TERMINAL_BW [10]: 385.2 g; Bas [9]: 0%; Eos [9]: 1%; Fbg [9]: 224.4 mg/dL; Lym [9]: 78.4%; MCHC [9]: 35.7%; Plat [9]: 114.5 x10_4/uL; RBC [9]: 699 x10_4/ul; Ret [9]: 3.8%; WBC [9]: 100.3 x10_2/uL; Bas [10]: 0%; Eos [10]: 1.4%; Lym [10]: 80%; MCH [10]: 20.1 pg; MCHC [10]: 36.1%; MCV [10]: 55.6 fL; Neu [10]: 15.4%; Plat [10]: 108.4 x10_4/uL; RBC [10]: 796.2 x10_4/ul; Ret [10]: 1.8%; WBC [10]: 95.4 x10_2/uL; KIDNEY_L [9]: 1.3 g; KIDNEY_R [9]: 1.3 g; KIDNEY_TOTAL [9]: 2.6 g; KIDNEY_L [10]: 1.4 g; KIDNEY_R [10]: 1.4 g; KIDNEY_TOTAL [10]: 2.8 g; LIVER [10]: 14.8 g; ALP [11]: 890.6 IU/L; ALT [11]: 35.2 IU/L; AST [11]: 66.2 IU/L; CRE [11]: 0.4 mg/dL; Ca [11]: 10.6 mg/dL; DBIL [11]: 0.1 mg/dL; GLC [11]: 218.4 mg/dL; IP [11]: 7.8 mg/dL; K [11]: 3.7 meq/L; LDH [11]: 192.8 IU/L; Na [11]: 140.8 meq/L; PL [11]: 173.4 mg/dL; RALB [11]: 3.4 g/dL; TBIL [11]: 0.2 mg/dL; TC [11]: 81.4 mg/dL; TG [11]: 151.6 mg/dL; TP [11]: 5.9 g/dL; gamma-GTP [11]: 0.4 IU/L; ALP [12]: 610.6 IU/L; ALT [12]: 29.4 IU/L; AST [12]: 61.4 IU/L; CRE [12]: 0.4 mg/dL; DBIL [12]: 0.088 mg/dL; GLC [12]: 215.8 mg/dL; IP [12]: 6.7 mg/dL; K [12]: 3.5 meq/L; LDH [12]: 165.4 IU/L; PL [12]: 141.4 mg/dL; RALB [12]: 3.4 g/dL; TBIL [12]: 0.2 mg/dL; TP [12]: 6.2 g/dL; gamma-GTP [12]: 0.2 IU/L
